{"source": "paper PMC12796733", "about": "(The Journal of Biological Chemistry, 2025)", "assay_type_in_all_cases": "binding", "key": {"[1]": {"target": "T1, Linker-NEAT1 (Streptococcus pyogenes, UniProt Q99YA0)", "T1 construct": "gene shr; linker + NEAT1 domain, Ser294-Gly502 of 1275-residue Shr; E. coli BL21(DE3)", "T1 sequence (Q99YA0 294-502)": "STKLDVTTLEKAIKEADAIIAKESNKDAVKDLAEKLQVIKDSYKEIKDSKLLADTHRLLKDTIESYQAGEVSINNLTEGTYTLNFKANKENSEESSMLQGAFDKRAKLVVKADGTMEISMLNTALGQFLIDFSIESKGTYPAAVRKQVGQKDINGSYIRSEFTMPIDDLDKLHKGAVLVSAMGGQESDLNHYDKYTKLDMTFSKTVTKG", "assay": "differential scanning calorimetry", "conditions": "PBS; 1 mg/ml protein"}, "[2]": {"target": "T2, NEAT2 (Streptococcus pyogenes, UniProt Q99YA0)", "T2 construct": "gene shr; NEAT2 domain, Ala970-Thr1129 of 1275-residue Shr; E. coli BL21(DE3)", "T2 sequence (Q99YA0 970-1129)": "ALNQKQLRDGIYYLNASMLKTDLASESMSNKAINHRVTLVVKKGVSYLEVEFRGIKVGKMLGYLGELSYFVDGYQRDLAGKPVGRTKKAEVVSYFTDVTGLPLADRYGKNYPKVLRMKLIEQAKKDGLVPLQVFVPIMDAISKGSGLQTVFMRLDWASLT", "assay": "isothermal titration calorimetry", "conditions": "PBS pH 7.4, 5% DMSO, 25 °C; one set of sites"}, "[3]": {"target": "T1, Linker-NEAT1", "assay": "isothermal titration calorimetry", "conditions": "PBS pH 7.4, 5% DMSO, 25 °C; one set of sites"}, "[4]": {"target": "T2, NEAT2", "assay": "differential scanning calorimetry", "conditions": "PBS; 1 mg/ml protein"}, "[5]": {"target": "T3, Shp (Streptococcus pyogenes, UniProt Q06A48)", "T3 construct": "E. coli BL21(DE3)", "T3 sequence (Q06A48 entry or part of it)": "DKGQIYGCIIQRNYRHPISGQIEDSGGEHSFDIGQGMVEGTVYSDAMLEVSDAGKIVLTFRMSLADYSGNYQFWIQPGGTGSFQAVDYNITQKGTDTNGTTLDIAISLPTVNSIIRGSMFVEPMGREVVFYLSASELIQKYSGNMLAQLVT", "assay": "isothermal titration calorimetry", "conditions": "PBS pH 7.4, 5% DMSO, 25 °C; one set of sites"}}, "data": [{"substance": "heme", "values": [{"measurement": "Tm with heme (apo 34.6 °C)", "setting": "[1]", "value": 41.1, "unit": "°C"}, {"measurement": "Kd", "setting": "[2]", "value": "12.7 ± 10.3", "unit": "nM"}, {"measurement": "Kd", "setting": "[3]", "value": "32 ± 23.4", "unit": "nM"}, {"measurement": "Tm with heme (apo 58.1 °C)", "setting": "[4]", "value": 64.0, "unit": "°C"}, {"measurement": "Kd", "setting": "[5]", "value": "< 0.81", "unit": "nM"}]}]}
